Results published in patent US7238703B2, “Azabicyclic, azatricyclic and azaspirocyclic derivatives of aminocyclohexane NMDA, 5HT3, and neuronal nicotinic receptor antagonists” (priority 2002, dated 2007).
Counter-ions that a name gives are not always drawn. Like-named read-outs stand apart in the source and are kept apart here.

Assays:
[1] = molecular target: NMDA receptor ([3H]-(+)-MK-801 site); experiment: [3H]-(+)-MK-801 receptor binding, rat cortex membranes; details: for Ki: glycine 10 μM, glutamate 10 μM, mean, n=3
Protocol: Male Sprague-Dawley rats (200-250 g) were decapitated and their brains were removed rapidly. The cortex was dissected and homogenized in 20 volumes of ice-cold 0.32 M sucrose using a glass-Teflon homogenizer. The homogenate was centrifuged at 1000× g for 10 min. The pellet was discarded and the supernatant centrifuged at 20,000× g for 20 min. The resulting pellet was re-suspended in 20 volumes of distilled water and centrifuged for 20 min at 8000× g. Then the supernatant and the buffy coat were centrifuged at 48,000× g for 20 min in the presence of 50 mM Tris-HCl, pH 8.0. The pellet was then re-suspended and centrifuged two to three more times at 48,000× g for 20 min in the presence of 50 mM Tris-HCl, pH 8.0. All centrifugation steps were carried out at 4° C. After resuspension in 5 volumes of 50 mM Tris-HCl, pH 8.0 the membrane suspension was frozen rapidly at −80° C.
On the day of assay the membranes were thawed and washed four times by resuspension in 50 mM Tris-HCl, pH 8.0 and centrifugation at 48,000× g for 20 min. and finally re-suspended in 50 mM Tris-HCl, pH 7.4. The amount of protein in the final membrane preparation (250-500 μg/ml) was determined according to the method of Lowry et al. (1951). Incubations were started by adding [^3H]-(+)-MK-801 (23.9 Ci/mmol, 5 nM, Dupont NEN) to vials with glycine (10 μM), glutamate (10 μM), and 125-250 μg protein (total volume 0.5 ml) and various concentrations of the agents tested (10 concentrations in duplicates). The incubations were continued at room temperature for 120 min (equilibrium was achieved under the conditions used). Non-specific binding was defined by the addition of unlabeled (+)-MK-801 (10 μM). Incubations were terminated using a Millipore filter system. The samples were rinsed twice with 4 ml of ice cold assay buffer over glass fibre filters (Schleicher & Schuell) under a constant vacuum. Following separation and rinse the filters were placed into scintillation liquid (5 ml; Ultima Gold) and radioactivity retained on the filters was determined with a conventional liquid scintillation counter (Hewlett Packard, Liquid Scintillation Analyser). […] Most antagonists were tested in 3 to 7 separate experiments.
IC50s in patch clamp and binding studies were calculated according to the four parameter logistic equation using the Grafit computer program (Erithacus Software, England). Ki value for binding studies were then determined according to Cheng and Prusoff. Binding values presented are means±SEM of 3-5 determinations (each performed in duplicate).

[2] = test system: tonic convulsions (MES); experiment: Maximal electroshock (MES) anticonvulsive test; assay type: in vivo, mice; details: Mus musculus, ip, read-out: MES ED50
Protocol: (§1) NMR female mice (18-28 g) housed 5 per cage were used for the maximal electroshock (MES) and motor impairment tests. All animals were kept with water and food ad libitum under a 12 hour light-dark cycle (light on at 6 a.m.) and at a controlled temperature (20±0.5 °C.). All experiments were performed between 10 a.m. and 5 p.m. Tested agents were injected 30 min. i.p. before the induction of convulsions if not stated otherwise (see below). All compounds were dissolved in 0.9% saline.
(§2) The MES test was performed together with tests for myorelaxant action (traction reflex) and motor coordination (rotarod). For the traction reflex test mice were placed with their forepaws on a horizontal rod and were required to place all 4 paws on the wire within 10 seconds. To test ataxia (motor coordination) mice were placed on an accelerating rotarod and were required to remain on the rod for 1 minute. […] These tests were followed by MES (100 Hz, 0.5 second shock duration, 50 mA shock intensity, 0.9 ms impulse duration, Ugo Basile) applied through corneal electrodes. The presence of tonic convulsions was scored (tonic extension of hind paws with minimum angle to the body of 90[…]). The aim was to obtain ED50s for all parameters scored (anticonvulsive activity and motor side effects) with use of the Litchfield Wilcoxon test for quantal dose responses. Division of the ED50 for side effects (ataxia or myorelaxation) by the ED50 for antagonism of electroshock convulsions was used as a therapeutic index (TI).
(§3) ED50s are presented with 95% confidence limits (Cl). Pearson product moment correlation analysis (Sigma Stat, Jandel Scientific) was used to compare in vitro potencies and in vivo anticonvulsant activity.

[3] = test system: traction reflex; experiment: Myorelaxant action (traction reflex); assay type: in vivo, mice; details: for Myorelaxation ED50: NMR female mice, i.p., traction reflex, in mg/kg; for TI Myorelaxation: ED50 myorelaxation divided by ED50 MES
Protocol: as §1, §2
(§4) Pearson product moment correlation analysis (Sigma Stat, Jandel Scientific) was used to compare in vitro potencies and in vivo anticonvulsant activity.

[4] = Ataxia / motor coordination (rotarod); assay type: in vivo, mice; details: mouse, in vivo, ip; NMR female mice, accelerating rotarod
Protocol: as §1, §2, §3

[5] = Myorelaxant action (traction reflex); assay type: in vivo, mice; details: mouse, in vivo, ip; NMR female mice, i.p., traction reflex; read-out: Myorelaxation ED50
Protocol: as §1, §2, §4

[6] = test system: motor coordination (rotarod); experiment: Ataxia / motor coordination (rotarod); assay type: in vivo, mice; details: ED50 ataxia divided by ED50 MES
Protocol: as §1, §2, §3

[7] = molecular target: T1, NR1a/2A receptors (Homo sapiens, UniProt Q05586+Q12879); experiment: NMDA receptor subtype expression in Xenopus oocytes, two-electrode voltage clamp; assay type: cell-based
T1 construct: expressed in transfected cells; host or cells: Xenopus laevis oocytes injected with subunit RNA
T1 sequence (Q12879 23-1464, other chains not shown): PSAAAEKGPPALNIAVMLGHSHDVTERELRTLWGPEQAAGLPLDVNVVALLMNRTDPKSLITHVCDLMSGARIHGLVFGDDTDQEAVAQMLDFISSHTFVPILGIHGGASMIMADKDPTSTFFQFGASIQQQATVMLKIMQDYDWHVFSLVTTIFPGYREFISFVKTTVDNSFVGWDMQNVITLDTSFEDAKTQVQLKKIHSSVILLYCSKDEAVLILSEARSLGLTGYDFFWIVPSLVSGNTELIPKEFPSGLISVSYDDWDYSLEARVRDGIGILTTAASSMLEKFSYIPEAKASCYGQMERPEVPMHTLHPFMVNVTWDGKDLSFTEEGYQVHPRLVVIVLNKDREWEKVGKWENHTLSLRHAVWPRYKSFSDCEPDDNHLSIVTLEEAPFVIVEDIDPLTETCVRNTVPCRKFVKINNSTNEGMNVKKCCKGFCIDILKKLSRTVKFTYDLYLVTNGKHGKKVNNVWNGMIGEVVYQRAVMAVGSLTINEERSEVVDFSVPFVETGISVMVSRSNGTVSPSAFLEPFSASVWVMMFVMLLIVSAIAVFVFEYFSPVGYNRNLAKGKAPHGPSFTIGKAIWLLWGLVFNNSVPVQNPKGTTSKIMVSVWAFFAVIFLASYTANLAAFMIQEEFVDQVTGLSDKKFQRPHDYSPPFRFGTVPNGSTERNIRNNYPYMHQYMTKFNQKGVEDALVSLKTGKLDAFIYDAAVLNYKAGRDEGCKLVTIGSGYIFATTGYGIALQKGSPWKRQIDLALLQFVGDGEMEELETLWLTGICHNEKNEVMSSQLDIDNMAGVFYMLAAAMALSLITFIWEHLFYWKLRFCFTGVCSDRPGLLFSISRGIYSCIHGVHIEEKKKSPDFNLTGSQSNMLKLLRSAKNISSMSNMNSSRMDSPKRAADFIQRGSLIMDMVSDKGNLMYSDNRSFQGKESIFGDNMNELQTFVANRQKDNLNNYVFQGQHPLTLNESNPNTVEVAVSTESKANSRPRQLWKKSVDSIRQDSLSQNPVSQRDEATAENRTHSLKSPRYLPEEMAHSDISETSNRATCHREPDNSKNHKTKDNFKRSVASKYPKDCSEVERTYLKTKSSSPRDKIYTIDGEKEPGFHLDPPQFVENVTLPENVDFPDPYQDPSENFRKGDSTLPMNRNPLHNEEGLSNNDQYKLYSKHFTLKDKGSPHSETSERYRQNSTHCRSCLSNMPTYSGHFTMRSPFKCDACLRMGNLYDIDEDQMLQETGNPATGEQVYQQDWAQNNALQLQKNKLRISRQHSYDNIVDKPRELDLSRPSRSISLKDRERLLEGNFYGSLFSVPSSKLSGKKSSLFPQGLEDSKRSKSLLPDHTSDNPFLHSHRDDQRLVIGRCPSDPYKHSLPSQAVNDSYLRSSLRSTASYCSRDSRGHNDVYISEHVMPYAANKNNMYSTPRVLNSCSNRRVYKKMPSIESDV
Protocol: Mature female Xenopus laevis were anaesthetized in 0.2% Tricaine on ice for 15 min prior to surgery. Oocytes were removed and incubated in 2 mg/ml collagenase (type II) in Ca^2+-free oocyte Ringer solution (82.5 mM NaCl, 2 mM KCl, 2 mM MgCl2, 5 mM HEPES, pH 7.5) for 30 min. at room temperature and washed thoroughly with OR-2 (100 mM NaCl, 2 mM KCl, 1 mM MgCl2, 2 mM CaCl2, 5 mM HEPES, pH 7.5). The remaining follicle cell layer was removed manually with fine forceps and the oocytes were kept in OR-2. The RNA was dissolved in DEPC-treated, sterile distilled water. RNA for the NMDA NR1a subunit was mixed 1:1 with RNA for the NR2A subunit. Likewise neuronal nicotinic α4 RNA was mixed 1:1 with RNA for the β2 subunit. Fifty to 100 nanoliters of each RNA mixture were injected in the oocyte's cytoplasm using a Nanoliter Injector (World Precision Instruments). The oocytes were incubated at 19° C. in OR-2 for the following 3 to 6 days.
The electrophysiological responses were obtained using the standard two-electrode voltage-clamp method (GeneClamp 500 amplifier), 2-6 days after injection. […] Recordings were made in a custom made chamber with 2 to 3 second exchange times. The bath solution was prepared Ca^2+-free, to avoid Ca^2+-induced Cl^− currents (100 mM NaCl, 2 mM KCl, 5 mM HEPES, 2 mM BaCl2, pH 7.35). NMDA receptors were activated by the manual co-application of 1 mM Glutamate and 10 μM Glycine for 30-40 secs every 2 to 3 mins to oocytes clamped at −70 mV. Neuronal nicotinic receptors were activated by application of 100 μM acetylcholine for 20-30 secs every 2 to 3 mins to oocytes clamped at −70 mV. After obtaining stable control responses, full concentration-response curves with antagonists were obtained by preincubating 6-7 different concentrations at log 3 intervals.
Only results from stable cells were accepted for inclusion in the final analysis i.e. showing at least 50% recovery of responses to NMDA following removal of the antagonist tested. Despite this, recovery from drug actions wasn't always 100% because of minor rundown or runup in some cells. When present, this was always compensated by basing the % antagonism at each concentration on both control and recovery and assuming a linear time course for this rundown. All antagonists were assessed at steady-state blockade with 6 to 7 concentrations on at least 4 cells. Equilibrium blockade was achieved within 1 to 3 agonist applications, depending on antagonist concentration.
Kinetic experiments were performed by applying various concentrations of unsaturated amino-alkyl-cyclohexanes (normally 5 in a log 3 dosing regime) for 10-20 seconds in the continuous presence of glutamate (100 μM and glycine 10 μM) for 90-180 seconds in Xenopus oocytes expressing NR1a/2A receptors. The perfusion system used for these experiments was a modified oocyte carousel system which allows rapid wash in and wash out of agonist and antagonist with change times less than one second. Exponential fits were made using the program TIDA for windows and most responses were well fitted by a single exponential. This same system was used to access the voltage-dependency of blockade, but the bath solution contained flufenamic acid (100 μM) to block endogenous voltage-activated and Ca^2+ activated Cl^− currents. Also, Ba^2+ (2 mM) was replaced by low concentrations of Ca^2+ (0.2 mM). Following equilibrium blockade by higher concentrations of antagonist (normally around 10 times the IC50), five ramps were driven from −70 mV to +30 mV over two seconds. Similar ramps were driven in bath solutions and for glutamate without antagonist, both before antagonist application and following recovery of responses. The leak currents in the absence of glutamate were substrated from the glutamate and glutamate plus antagonist curves. Voltage-dependency was then determined by comparing the glutamate and glutamate plus antagonist curves.

[8] = Xenopus oocytes, N=6, read-out: NMDA IC50

Compound | Ki [1] [µM] | ED50 [2] [mg/kg] | ED50 at 30 min [4] [mg/kg] | ED50 at 30 min [5] [mg/kg] | IC50 [7, 8] [µM] | further results
CN1CC2(C)CC(C)(C)CC1(C)C2.Cl (centres unmarked) [MRZ 2/1003, 1,3,3,5,6-Pentamethyl-6-azabicyclo [3.2.1]octane hydrochloride] | 7.4 | 16.2 | 20.6 |  |  | Myorelaxation ED50 [3]: 16.77
CC1(C)CC(C)(C)CC2(CCCN2)C1.Cl [MRZ 2/1004, 7,7,9,9-Tetramethyl-1-azaspiro[4.5]decane hydrochloride] | 10.5 |  | 24 | 27.5 |  | ED50 ([2]; NMR female mice, i.p. 30 min before convulsions): 24.1 mg/kg; TI Myorelaxation [3]: 1.14; TI Ataxia [6]: 1.00
CC1(C)CC2(C)CNC(C)(C1)C2.Cl (centres unmarked) [MRZ 2/1010, 1,3,3,5-Tetramethyl-6-azabicyclo [3.2.1]octane hydrochloride] | 2.59 | 5.91 | 24.9 |  |  | IC50 [7]: 0.76 µM; Hill ([7]; Xenopus oocytes expressing NR1a/2A, glutamate 100 μM, glycine 10 μM, -70 mV): 0.63; Myorelaxation ED50 [3]: 10.62
CC1(C)CC(C)(C)CC2(CCCCN2)C1.Cl [MRZ 2/1013, 8,8,10,10-Tetramethyl-1-azaspiro[5.5]undecane hydrochloride] | 3.64 | 9.39 | 37.2 | 34.5 |  | IC50 [7]: 4.72 µM; TI Myorelaxation [3]: 3.67; TI Ataxia [6]: 3.97
CCC1CC2(C)CNC(C)(C1)C2 (stereo not drawn) [MRZ 2007, exo-3-Ethyl-1,5-dimethyl-6-azabicyclo[3.2.1]octane hydrochloride] | 5.46 | > 50 | 50 | > 50 | 6.77 | 
CC1CC2(C)CNC(C)(C1)C2 (stereo not drawn) [MRZ 2011, 1,exo-3,5-Trimethyl-6-azabicyclo[3.2.1]octane hydrochloride] | 15.8 |  |  |  |  | 
CCC12CC(C)(C)CC(C)(CN1)C2 (centres unmarked) [MRZ 2022, 5-Ethyl-1,3,3-trimethyl-6-azabicyclo[3.2.1]octane hydrochloride] | 14.4 |  |  |  |  | IC50 [7]: 13.9 µM
CCC12CC(C)CC(C)(CN1)C2 (stereo not drawn) [MRZ 2023, 5-Ethyl-1,exo-3-dimethyl-6-azabicyclo[3.2.1]octane hydrochloride] | 23.3 | > 30 | > 30 | > 30 | 16.1 | 
CC1CC2(C)CC(C)(C1)C(c1ccccc1)N2 (stereo not drawn) [MRZ 2028, 1,exo-3,5-Trimethyl-exo,endo-7-phenyl-6-azabicyclo[3.2.1]octane hydrochloride] | 3.21 |  |  |  | 10.3 | 
CC1CC2(C)CC(C)(C1)C(C)N2 (stereo not drawn) [MRZ 2029, 1,exo-3,5,exo,endo-7-Tetramethyl-6-azabicyclo[3.2.1]octane hydrochloride] | 13.2 | > 50 | > 50 | > 50 | 36.1 | 
(+)-5-methyl-10,11-dihydro-5H-dibenzocyclohepten-5,10-imine maleate [[^3H]-(+)-MK-801, reference compound] |  |  |  |  |  | Kd ([1]; read-out: Kd of radioligand by Scatchard analysis): 0.0046 µM
